Assay results reported in publication PMC2658777, “Prodrugs of Fluoro-Substituted Benzoates of EGC as Tumor Cellular Proteasome Inhibitors and Apoptosis Inducers” (International Journal of Molecular Sciences, 2008).

How the values were obtained:
[1] = target: T1, purified rabbit 20S proteasome (chymotrypsin-like activity) (Oryctolagus cuniculus, UniProt G1T4Q9); test: Inhibition of the chymotrypsin-like activity of a purified 20S proteasome; type: biochemical; settings: fluorogenic substrate, 2 h incubation
T1 construct: purchased Boston Biochem
T1 sequence (G1T4Q9 1-263): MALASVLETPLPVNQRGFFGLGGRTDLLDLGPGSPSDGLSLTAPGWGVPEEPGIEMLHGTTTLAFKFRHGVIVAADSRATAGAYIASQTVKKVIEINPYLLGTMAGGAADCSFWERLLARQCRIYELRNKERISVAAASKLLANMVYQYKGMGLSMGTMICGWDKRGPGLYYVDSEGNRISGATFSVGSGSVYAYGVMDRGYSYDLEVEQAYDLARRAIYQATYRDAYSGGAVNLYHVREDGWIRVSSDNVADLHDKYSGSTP
Experimental: We first tested the effect of these compounds on inhibiting the chymotrypsin-like activity of a purified 20S proteasome using purified EGCG as a positive control. Each of these compounds was incubated with a purified rabbit 20S proteasome and a fluorogenic substrate for chymotrypsin-like activity for 2 h. The half-maximal inhibitory concentration or IC50 was then determined.
Highly purified (-)-EGCG and dimethyl sulfoxide (DMSO) were purchased from Sigma-Aldrich. Purified 20S proteasome (rabbit) was purchased from Boston Biochem. Fluorogenic peptide substrate Suc-Leu-Leu-Val-Tyr-AMC (for the proteasomal chymotrypsin-like activity) was obtained from Calbiochem. Polyclonal antibody to ubiquitin, IκB-α̣ monoclonal anti-actin, anti-goat, anti-rabbit, and anti-mouse IgG-horseradish peroxidase were obtained from Santa Cruz Biotechnology Inc. Mouse monoclonal anitbody against human poly(ADP-ribose) polymerase (PARP) was purchased from Biomol International LP (Plymouth Meeting, PA). RPMI 1640, Penicillin and streptomycin were purchased from Invitrogen.

[2] = system: Human leukemia Jurkat T cells; test: Trypan blue dye exclusion cell death assay; type: cell-based; settings: 50 μM, 24 h
Experimental: We first tested whether these Pro-F-EGCGs could induce cell death in tumor cells. Human leukemia Jurkat T cells were treated with 50 μM of each analog for 24 h, followed by Trypan-blue exclusion assay. Blue cells and cells with apoptosis-associated morphological changes (shrunken, blebbing, etc) were scored as dead cells. Pro-EGCG (1) and DMSO were used as controls.
The Trypan blue dye exclusion assay was performed by mixing 20 μL of cell suspension with 20 μL of 0.4% Trypan blue dye before injecting into a hemocytometer and counting. The number of cells that absorbed the dye and those that exclude the dye were counted, from which percentage of nonviable cell number over the total cell number was calculated.
(§1) Human leukemia Jurkat T cells were cultured in RPMI 1640 medium supplemented with 10% fetal calf serum, 100 units/mL of penicillin, and 100 μg/mL of streptomycin. Cells were maintained at 37 °C in a humidified incubator with an atmosphere of 5% CO2. Jurkat T cells were treated by selected compounds at various concentrations for indicated hours (see figure legends for details), and a whole-cell extract was then prepared as described previously. Briefly, cells were harvested, washed with PBS, and homogenized in a lysis buffer (50 mM, Tris-HCl, pH 8.0, 150 mM NaCl, 0.5% NP-40, 0.5 mM penylmethylsulfonyl fluoride, and 0.5 mM dithiothreitol) at 4 °C. Afterwards, the lysates were centrifuged at 12,000 × g for 15 min at 4 °C and the supernatants collected as whole-cell extracts.

[3] = design: method as in PMID 17477351; settings: in vitro; cited from earlier work
Jurkat T cells = test: Western blot of ubiquitinated IκB-α (p56), ubiquitinated proteins and PARP cleavage; type: cell-based, human; settings: for p56 IκB-α (ubiquitinated form), Western blot: 50 μM; for accumulation of ubiquitinated proteins, Western blot: Jurkat T cells, 10, 25 or 50 μM
Experimental: (§2) To study whether the induction of cell death by Pro-F-EGCG4 was due to its proteasome-inhibitory and apoptosis-inducing activities, Jurkat T cells were treated with 50 μM of Pro-F-EGCG4 and Pro-EGCG (1) as a control for 4, 8 and 24 h, followed by measurement of proteasome inhibition and apoptotic cell death. […] Previously, we reported that the p56 is an ubiquitinated form of IκB-α protein as a marker of proteasome inhibition, as verified by the immunoprecipitation-Western blot assay. […] Consistently, PARP cleavage fragment p85 was detected in Jurkat T cells treated with Pro-F-EGCG4 in a time-dependent manner (Fig. 3B). A p65 PARP fragment was also detected in cells treated with Pro-F-EGCG4 (Fig. 3B), indicating calpain activation occurred as well [14]. Apoptotic morphological changes were observed after 4 hours of treatment with Pro-F-EGCG4 (data not shown).
as §1
Analysis of IκB-α, PARP, and ubiquitinated proteins was performed using monoclonal or polyclonal antibodies, according to previously reported protocols.

[4] = system: caspase-3/7 activities in Jurkat T cells; test: Caspase-3/7 activity in extracts of treated cells; type: cell-based, human; settings: 50 μM, 24 h (dose-dependent experiment)
Experimental: as §2
Human leukemia Jurkat T cells were cultured in RPMI 1640 medium supplemented with 10% fetal calf serum, 100 units/mL of penicillin, and 100 μg/mL of streptomycin. Cells were maintained at 37 °C in a humidified incubator with an atmosphere of 5% CO2. […]
Cells were treated with each compound at indicated concentration for indicated hours, harvested, and lysed as described previously. Ac-DEVD-AMC (40 μM) was then incubated with the prepared cell lysates for 2 h and the caspase-3 activity was measured as described previously.

[5] = system: human breast cancer xenografts; design: method as in PMID 17483343; settings: human breast cancer xenografts in mice; cited from earlier work
[6] = system: proteasomal chymotrypsin (CT)-like activity in Jurkat T cells; test: Cellular proteasomal chymotrypsin-like activity in extracts of treated cells; type: cell-based, human
Experimental: as §2
We then performed a dose-dependent experiment. Jurkat T cells were treated with Pro-F-EGCG4 or Pro-EGCG (1) at 10, 25, or 50 μM for 24 h, followed by measurement of proteasome inhibition and apoptotic cell death.
as §1
Human leukemia Jurkat T cells were treated with each compound at indicated concentration for indicated hours (see the figure legends for details), harvested, and lysed as described previously. Whole cell extracts were prepared as detailed in section 3.4, aliquoted and kept at −80 °C. One of the aliquots was used for determination of protein concentration. After that, whole cell extracts (10 μg) from each preparation were incubated with Suc-Leu-Leu-Val-Tyr-AMC (20 μM) fluorogenic substrate at 37°C in 100 μl of assay buffer (50 mM Tris-HCL, pH 7.5) for 2 h. After incubation, production of hydrolyzed 7-amino-4-methylcoumarin (AMC) groups was measured using a Victor^3 Multilabel Counter with an excitation filter of 380 nm and an emission filter of 460 nm (PerkinElmer, Boston, MA, USA).

[7] = Jurkat T cells, 50 μM, 4, 8 and 24 h
[8] = Jurkat T cells, 10, 25 or 50 μM, 24 h

## O=C(O[C@@H]1Cc2c(O)cc(O)cc2O[C@@H]1c1cc(O)c(O)c(O)c1)c1cc(O)c(O)c(O)c1 [(-)-EGCG, (-)-epigallocatechin-3-gallate, reference compound]
[1]
  IC50: 680 nM

## O=C(O[C@@H]1Cc2c(O)cc(O)cc2O[C@@H]1c1cc(O)c(O)c(O)c1)c1ccccc1F [F-EGCG1, (-)-(2R, 3R)-5,7-dihydroxy-2-(3,4,5-trihydroxyphenyl)chroman-3-yl 2-fluorobenzoate]
[1]
  IC50: 1250 nM

## O=C(O[C@@H]1Cc2c(O)cc(O)cc2O[C@@H]1c1cc(O)c(O)c(O)c1)c1cccc(F)c1 [F-EGCG2]
[1]
  IC50: 840 nM

## O=C(O[C@@H]1Cc2c(O)cc(O)cc2O[C@@H]1c1cc(O)c(O)c(O)c1)c1ccc(F)cc1 [F-EGCG3]
[1]
  IC50: 1900 nM

## O=C(O[C@@H]1Cc2c(O)cc(O)cc2O[C@@H]1c1cc(O)c(O)c(O)c1)c1ccc(F)c(F)c1 [F-EGCG4]
[1]
  IC50: 650 nM

## CC(=O)Oc1cc(OC(C)=O)c2c(c1)O[C@H](c1cc(OC(C)=O)c(OC(C)=O)c(OC(C)=O)c1)[C@H](OC(=O)c1cc(OC(C)=O)c(OC(C)=O)c(OC(C)=O)c1)C2 [Pro-EGCG (1), reference compound]
[2]
  cell death (dead cells over total cell population): ~ 70%
[3]
  cellular permeability and stability compared with natural EGCG: significantly enhanced
Jurkat T cells; Jurkat T cells, all the time points (4, 8, 24 h)
  p56 IκB-α (ubiquitinated form), Western blot: increased level
Jurkat T cells; 24 h
  accumulation of ubiquitinated proteins, Western blot: accumulation of ubiquitinated proteins
[4]
  caspase 3/7 activity, induction: 6 fold
[5]
  anti-tumor activity compared with natural EGCG: greater anti-tumor activity
[6]; [7]
  proteasomal CT-like activity in treated cells: decrease in the level of the proteasomal CT-like activity in a time-dependent manner
[6]; [8]
  proteasomal CT-like activity in treated cells: showed inhibition

## CC(=O)Oc1cc(OC(C)=O)c2c(c1)O[C@H](c1cc(OC(C)=O)c(OC(C)=O)c(OC(C)=O)c1)[C@H](OC(=O)c1ccccc1F)C2 [Pro-F-EGCG1, (-)-(2R, 3R)-5,7-Diacetoxy-2-(3,4,5-triacetoxyphenyl)chroman-3-yl 2-fluorobenzoate]
[2]
  cell death (dead cells over total cell population): 44%

## CC(=O)Oc1cc(OC(C)=O)c2c(c1)O[C@H](c1cc(OC(C)=O)c(OC(C)=O)c(OC(C)=O)c1)[C@H](OC(=O)c1cccc(F)c1)C2 [Pro-F-EGCG2, (-)-(2R, 3R)-5,7-Diacetoxy-2-(3,4,5-triacetoxyphenyl)chroman-3-yl 3-fluorobenzoate]
[2]
  cell death (dead cells over total cell population): 90%

## CC(=O)Oc1cc(OC(C)=O)c2c(c1)O[C@H](c1cc(OC(C)=O)c(OC(C)=O)c(OC(C)=O)c1)[C@H](OC(=O)c1ccc(F)cc1)C2 [Pro-F-EGCG3, (-)-(2R, 3R)-5,7-Diacetoxy-2-(3,4,5-triacetoxyphenyl)chroman-3-yl 4-fluorobenzoate]
[2]
  cell death (dead cells over total cell population): 30%

## CC(=O)Oc1cc(OC(C)=O)c2c(c1)O[C@H](c1cc(OC(C)=O)c(OC(C)=O)c(OC(C)=O)c1)[C@H](OC(=O)c1ccc(F)c(F)c1)C2 [Pro-F-EGCG4, (-)-(2R,3R)-5,7-Diacetoxy-2-(3,4,5-triacetoxyphenyl)chroman-3-yl 3,4-difluorobenzoate]
[2]
  cell death (dead cells over total cell population): 90%
Jurkat T cells; [7]
  PARP cleavage fragment p85, Western blot: detected
Jurkat T cells; Jurkat T cells, 4 or 8 h
  p56 IκB-α (ubiquitinated form), Western blot: induced the appearance
Jurkat T cells; Jurkat T cells, 24 h
  p56 IκB-α (ubiquitinated form), Western blot: not detected
Jurkat T cells; 24 h
  accumulation of ubiquitinated proteins, Western blot: caused accumulation of ubiquitinated proteins in a dose-dependent manner
[6]; [7]
  proteasomal CT-like activity in treated cells: decreased level
[6]; [8]
  proteasomal CT-like activity in treated cells: inhibited the proteasomal CT-like activity in a dose-dependent manner
